Data published in US20110311621A1, “PHARMACEUTICAL COMPOSITIONS AND METHODS OF DELVERY” (priority 2010, published 2011).

Tests used:
[1] = tested on: conscious rats; assay: Effect of CCK-8 on food intake: volume of D-glucose solution consumed by conscious rats; type: in vivo, Sprague Dawley rats; conditions: 0.165 mg CCK-8 per rat; 30 min post administration
Procedure: Three of the above formulations (R, S and T) were prepared as follows for use in testing biological activity: Formulation R at levels of 0.165, 0.055, 0.003 mg CCK-8 per rat; Formulation S at 0.09 mg CCK-8 per rat; and Formulation T at 0.09 mg CCK-8 per rat. Thus Formulation R with 0.055 CCK-8 (% w/w) was used at 0.3 and 0.1 ml per rat to give a dose of 0.165 and 0.055 (mg per rat); Formulation R with 0.001 CCK-8 (% w/w) was used at 0.3 ml per rat to give a dose of 0.003 mg per rat; and Formulations S and T with 0.03 CCK-8 (% w/w) were both used at 0.3 ml to give a dose of 0.09 mg per rat.
The effect of oral administration of CCK8 on food intake was achieved by measuring the volume of D-glucose consumed by conscious rats (essentially using the method described by Chun-Min et al., Am. Physio. Soc. 296:R43-R50, 2009). The feeding response of conscious rats to exogenous oral CCK-8 was analyzed by measuring the volume of D-glucose solution consumed. Sprague Dawley rats cannulated at the jejunum (as described in Example 2) were fasted for 18 h. The fasted animals were administrated with a dose range of exogenous CCK8 using three formulations. Three groups served as controls: Rats administered with formulation alone; rats administered with CCK-8 in saline (0.165 mg
The volume of glucose solution consumption was measured at 30 min, 60 min and 90 min post administration. […]

[2] = Aliskiren bioavailability after jejunal administration to conscious rats, compared with oral solution by gavage; conditions: AUC relative to aliskiren oral solution (gavage)
Excerpt: (i) Jejunal Administration to Conscious rats
To test the bioavailability of formulations in the jejunum of conscious rats, a specialized rat model was established in which two different cannulas are surgically implanted in male Sprague-Dowley rats (other rats may also be used): • 1—jejunal cannula to bypass the stomach and enable direct formulation administration to the jejunum; and • 2—jugular vein cannula to determine the systematic levels of the administered dextran following jejunal administration.
Rats were allowed to recover for 4 days before the study and were deprived of food for 18 hours before the start of the study. […]
Blood samples were drawn from the jugular vein at an appropriate series of times post jejunal administration and post IV administration, (or post SC administration), plasma was prepared and levels of active ingredient were determined in each sample. The average absolute Bioavailability (aBA) achieved after jejunal administration of the formulation is calculated as described below.
Exposure values, AUC (0-T), are calculated from the area under the serum concentration versus time curve (AUC) and are determined for jejunal and intravenous administration (or SC administration). […]

Row | Fold from gavage [2] | Compound | Average volume of glucose solution consumed (± standard error) [1] [mL] | Median volume of glucose solution consumed [1] [mL]
1 | – | CSCC[C@H](NC(=O)[C@H](Cc1ccc(OS(=O)(=O)O)cc1)NC(=O)[C@@H](N)CC(=O)O)C(=O)NCC(=O)N[C@@H](Cc1c[nH]c2ccccc12)C(=O)N[C@@H](CCSC)C(=O)N[C@@H](CC(=O)O)C(=O)N[C@@H](Cc1ccccc1)C(N)=O [CCK8 in saline, Sincalide] | 6.80 ± 0.99 | 7.90
2 | 1 | COCCCOc1cc(C[C@@H](C[C@H](N)[C@@H](O)C[C@H](C(=O)NCC(C)(C)C(N)=O)C(C)C)C(C)C)ccc1OC [Aliskiren oral solution, aliskiren] | – | –
